Data: ChEMBL document CHEMBL5150068, “Structure-Based Design of Tropane Derivatives as a Novel Series of CCR5 Antagonists with Broad-Spectrum Anti-HIV-1 Activities and Improved Oral Bioavailability” (J Med Chem, 2022)

Assays:
[1] = target: T1, Cytochrome P450 3A4 (Homo sapiens, UniProt P08684); assay: Inhibition of CYP3A4 (unknown origin) using testosterone as substrate; format: ADME
[2] = tested on: Human immunodeficiency virus 1; assay: Synergistic antiviral activity against HIV-1 Ba-L infected in human TZM-bl cells assessed as combination index in presence of T-20; format: functional
[3] = tested on: Human immunodeficiency virus 1; assay: Synergistic antiviral activity against HIV-1 Ba-L infected in human TZM-bl cells assessed as combination index in presence of tenofovir; format: functional
[4] = target: Cytochrome P450 2C19 (Homo sapiens, UniProt P33261); assay: Inhibition of CYP2C19 (unknown origin); format: ADME
[5] = tested on: Human immunodeficiency virus 1; assay: Synergistic antiviral activity against HIV-1 Ba-L infected in human TZM-bl cells assessed as combination index in presence of raltegravir; format: functional
[6] = target: Cytochrome P450 2D6 (Homo sapiens, UniProt P10635); assay: Inhibition of CYP2D6 (unknown origin); format: ADME
[7] = in vitro; conditions: human, PM1 cells
Description: Therapeutic index, ratio of CC50 for human PM1 cells to EC50 for antiviral activity against HIV-1 YU-2

[8] = AUC (0 to infinitive) in Sprague-Dawley rat at 10 mg/kg, po measured upto 24 hrs; format: ADME, organism-based; parameters: dose 10 mg/kg, time < 24 hrs, route po; conditions: in vivo, 24 h
[9] = tested on: Human immunodeficiency virus 1; assay: Synergistic antiviral activity against HIV-1 Ba-L infected in human TZM-bl cells assessed as combination index in presence of dolutegravir; format: functional
[10] = tested on: Human immunodeficiency virus 1; assay: Antiviral activity against HIV-1 Ba-L infected in human PM1 cells measured after 48 hrs incubation by ELISA based p24 antigen assay; format: functional, organism-based; conditions: Human immunodeficiency virus 1, Ba-L, PM1, 48 h
[11] = tested on: Human immunodeficiency virus 1; assay: Antiviral activity against HIV-1 KIZ006 clinical isolate infected in human PBMC measured after 48 hrs incubation by luciferase based analysis; format: functional, organism-based; conditions: Human immunodeficiency virus 1, KIZ006, PBMC
[12] = tested on: Human immunodeficiency virus 1; assay: Antiviral activity against HIV-1 IIIB infected in human TZM-bl cells measured after 48 hrs incubation by luciferase based analysis; format: functional, organism-based; conditions: Human immunodeficiency virus 1, IIIB
[13] = Cytotoxicity against human HOS-CD4-CCR5 cells incubated for 48 hrs by MTT assay; format: toxicity, cell-based
[14] = tested on: Human immunodeficiency virus 1; assay: Antiviral activity against HIV-1 KM018 clinical isolate infected in human PBMC measured after 48 hrs incubation by luciferase based analysis; format: functional, organism-based; conditions: Human immunodeficiency virus 1, KM018, PBMC
[15] = tested on: Human immunodeficiency virus 1; assay: Synergistic antiviral activity against HIV-1 Ba-L infected in human TZM-bl cells assessed as combination index in presence of zidovudine; format: functional
[16] = tested on: Human immunodeficiency virus 1; assay: Synergistic antiviral activity against HIV-1 Ba-L infected in human TZM-bl cells assessed as combination index in presence of emtricitabine; format: functional
[17] = Tmax in Sprague-Dawley rat at 10 mg/kg, po measured upto 24 hrs; format: ADME, organism-based; conditions: in vivo
[18] = Cytotoxicity against human TZM-bl cells incubated for 48 hrs by MTT assay; format: toxicity, cell-based
[19] = in vitro; conditions: human, PM1 cells; remark: listed apart in the source
Description: Therapeutic index, ratio of CC50 for human PM1 cells to EC50 for antiviral activity against HIV-1 SF162

[20] = tested on: Human immunodeficiency virus 1; assay: Synergistic antiviral activity against HIV-1 Ba-L infected in human TZM-bl cells assessed as combination index in presence of nevirapine; format: functional
[21] = Cytotoxicity against human PM1 cells incubated for 48 hrs by MTT assay; format: toxicity, cell-based
[22] = AUC (0 to infinitive) in Sprague-Dawley rat at 2 mg/kg, iv measured upto 24 hrs; format: ADME, organism-based; parameters: dose 2 mg/kg, time < 24 hrs, route iv; conditions: in vivo, 24 h
[23] = AUC (0 to last) in Sprague-Dawley rat at 2 mg/kg, iv measured upto 24 hrs; format: ADME, organism-based; parameters: dose 2 mg/kg, time < 24 hrs, route iv; conditions: in vivo, 24 h
[24] = in vitro; conditions: human, PBMC
Description: Therapeutic index, ratio of CC50 for human PBMC to EC50 for antiviral activity against HIV-1 KM018 clinical isolate

[25] = target: Cytochrome P450 2C9 (Homo sapiens, UniProt P11712); assay: Inhibition of CYP2C9 (unknown origin); format: ADME
[26] = Half life in Sprague-Dawley rat at 10 mg/kg, po measured upto 24 hrs; format: ADME, organism-based; conditions: in vivo
[27] = tested on: Human immunodeficiency virus 1; assay: Antiviral activity against HIV-1 YU-2 (G140S/Q148H) infected in human TZM-bl cells measured after 48 hrs incubation by luciferase based analysis; format: functional, organism-based; conditions: Human immunodeficiency virus 1, YU-2 (G140S/Q148H)
[28] = Oral bioavailability in Sprague-Dawley rat at 10 mg/kg measured upto 24 hrs; format: ADME, organism-based; conditions: in vivo, po, 10 mg/kg, 24 h
[29] = tested on: Human immunodeficiency virus 1; assay: Synergistic antiviral activity against HIV-1 Ba-L infected in human TZM-bl cells assessed as combination index in presence of indinavir; format: functional
[30] = tested on: Human immunodeficiency virus 1; assay: Antiviral activity against HIV-1 YU-2 infected in human TZM-bl cells measured after 48 hrs incubation by luciferase based analysis; format: functional, organism-based; conditions: Human immunodeficiency virus 1, YU-2, TZM-bl, 48 h
[31] = AUC (0 to last) in Sprague-Dawley rat at 10 mg/kg, po measured upto 24 hrs; format: ADME, organism-based; parameters: dose 10 mg/kg, time < 24 hrs, route po; conditions: in vivo
[32] = target: C-C chemokine receptor type 5 (Homo sapiens, UniProt P51681); assay: Antagonist activity at CCR5 (unknown origin) expressed in HEK293 cells co-expressing Galpha16 assessed as intracellular calcium change incubated for 15 mins by Fluo-4 AM calcium flux assay; format: functional, cell-based
[33] = Half life in Sprague-Dawley rat at 2 mg/kg, iv measured upto 24 hrs; format: ADME, organism-based; conditions: Sprague-Dawley, in vivo
[34] = target: T1, Cytochrome P450 3A4; assay: Inhibition of CYP3A4 (unknown origin) using midazolam as substrate; format: ADME
[35] = Cmax in Sprague-Dawley rat at 10 mg/kg, po measured upto 24 hrs; format: ADME, organism-based; parameters: time < 24 hrs, dose 10 mg/kg, route po; conditions: in vivo
[36] = tested on: Human immunodeficiency virus 1; assay: Synergistic antiviral activity against HIV-1 Ba-L infected in human TZM-bl cells assessed as combination index in presence of efavirenz; format: functional
[37] = Cytotoxicity against human PBMC cells incubated for 48 hrs by MTT assay; format: toxicity, cell-based
[38] = tested on: Human immunodeficiency virus 1; assay: Antiviral activity against HIV-1 Ba-L infected in human TZM-bl cells measured after 48 hrs incubation by luciferase based analysis; format: functional, organism-based; conditions: Human immunodeficiency virus 1, Ba-L
[39] = MRT in Sprague-Dawley rat at 2 mg/kg, iv measured upto 24 hrs; format: ADME, organism-based; conditions: Sprague-Dawley, in vivo, read-out: MRT
[40] = tested on: Human immunodeficiency virus 1; assay: Synergistic antiviral activity against HIV-1 Ba-L infected in human TZM-bl cells assessed as combination index in presence of etravirine; format: functional
[41] = in vitro; conditions: human, HOS-CD4-CCR5 cells
Description: Therapeutic index, ratio of CC50 for human HOS-CD4-CCR5 cells to EC50 for antiviral activity against HIV-1 Ba-L

[42] = tested on: Human immunodeficiency virus 1; assay: Synergistic antiviral activity against HIV-1 Ba-L infected in human TZM-bl cells assessed as combination index in presence of lamivudine; format: functional
[43] = tested on: Human immunodeficiency virus 1; assay: Antiviral activity against HIV-1 SF162 infected in human TZM-bl cells measured after 48 hrs incubation by luciferase based analysis; format: functional, organism-based; conditions: Human immunodeficiency virus 1, SF162, TZM-bl
[44] = tested on: Human immunodeficiency virus 1; assay: Antiviral activity against HIV-1 Ba-L infected in human HOS-CD4-CCR5 cells measured after 48 hrs incubation by ELISA based p24 antigen assay; format: functional, organism-based; conditions: Human immunodeficiency virus 1, Ba-L
[45] = in vitro; conditions: human, PM1 cells; remark: listed apart in the source
Description: Therapeutic index, ratio of CC50 for human PM1 cells to EC50 for antiviral activity against HIV-1 Ba-L

[46] = in vitro; conditions: human, TZM-bl cells
Description: Therapeutic index, ratio of CC50 for human TZM-bl cells to EC50 for antiviral activity against HIV-1 Ba-L

[47] = tested on: Human immunodeficiency virus 1; assay: Antiviral activity against HIV-1 KIZ001 clinical isolate infected in human PBMC measured after 48 hrs incubation by luciferase based analysis; format: functional, organism-based; conditions: Human immunodeficiency virus 1, KIZ001, PBMC
[48] = MRT in Sprague-Dawley rat at 10 mg/kg, po measured upto 24 hrs; format: ADME, organism-based; conditions: in vivo
[49] = target: T2, Cytochrome P450 1A2 (Homo sapiens, UniProt P05177); assay: Inhibition of CYP1A2 (unknown origin); format: ADME
T2 sequence (P05177 whole entry): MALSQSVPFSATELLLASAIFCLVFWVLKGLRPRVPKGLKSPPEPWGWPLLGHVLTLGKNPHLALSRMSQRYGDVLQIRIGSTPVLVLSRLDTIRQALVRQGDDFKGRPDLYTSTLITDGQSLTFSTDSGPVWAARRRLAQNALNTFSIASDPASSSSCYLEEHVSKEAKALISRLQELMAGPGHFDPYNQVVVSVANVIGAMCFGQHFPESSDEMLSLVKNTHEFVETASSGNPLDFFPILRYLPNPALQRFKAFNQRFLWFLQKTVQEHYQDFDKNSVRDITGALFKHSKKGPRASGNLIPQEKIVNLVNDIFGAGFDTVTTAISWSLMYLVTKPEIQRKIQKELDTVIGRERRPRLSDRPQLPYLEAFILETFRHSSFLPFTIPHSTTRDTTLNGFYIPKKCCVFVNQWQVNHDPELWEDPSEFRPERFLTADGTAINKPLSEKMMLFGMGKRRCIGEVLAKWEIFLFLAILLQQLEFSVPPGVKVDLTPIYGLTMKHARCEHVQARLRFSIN

[50] = in vitro; conditions: human, PBMC; remark: listed apart in the source
Description: Therapeutic index, ratio of CC50 for human PBMC to EC50 for antiviral activity against HIV-1 KIZ006 clinical isolate

[51] = in vitro; conditions: human, PBMC; remark: listed apart in the source
Description: Therapeutic index, ratio of CC50 for human PBMC to EC50 for antiviral activity against HIV-1 KIZ001 clinical isolate

T1 sequence (P08684 whole entry): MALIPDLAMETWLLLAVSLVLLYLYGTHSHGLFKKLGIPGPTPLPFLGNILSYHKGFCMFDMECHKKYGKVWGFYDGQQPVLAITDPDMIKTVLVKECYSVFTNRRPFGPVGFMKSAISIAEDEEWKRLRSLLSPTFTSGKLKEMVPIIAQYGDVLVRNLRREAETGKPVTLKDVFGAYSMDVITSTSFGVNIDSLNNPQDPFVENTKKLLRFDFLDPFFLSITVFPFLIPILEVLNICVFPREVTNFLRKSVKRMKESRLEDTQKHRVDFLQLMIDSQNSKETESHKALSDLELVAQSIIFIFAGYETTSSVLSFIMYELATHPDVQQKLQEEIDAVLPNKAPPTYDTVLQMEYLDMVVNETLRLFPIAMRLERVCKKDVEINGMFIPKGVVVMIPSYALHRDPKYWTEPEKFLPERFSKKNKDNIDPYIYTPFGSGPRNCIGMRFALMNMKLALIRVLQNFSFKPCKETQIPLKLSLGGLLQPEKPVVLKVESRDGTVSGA
Chain of Cytochrome P450 2C9 (P11712 whole entry): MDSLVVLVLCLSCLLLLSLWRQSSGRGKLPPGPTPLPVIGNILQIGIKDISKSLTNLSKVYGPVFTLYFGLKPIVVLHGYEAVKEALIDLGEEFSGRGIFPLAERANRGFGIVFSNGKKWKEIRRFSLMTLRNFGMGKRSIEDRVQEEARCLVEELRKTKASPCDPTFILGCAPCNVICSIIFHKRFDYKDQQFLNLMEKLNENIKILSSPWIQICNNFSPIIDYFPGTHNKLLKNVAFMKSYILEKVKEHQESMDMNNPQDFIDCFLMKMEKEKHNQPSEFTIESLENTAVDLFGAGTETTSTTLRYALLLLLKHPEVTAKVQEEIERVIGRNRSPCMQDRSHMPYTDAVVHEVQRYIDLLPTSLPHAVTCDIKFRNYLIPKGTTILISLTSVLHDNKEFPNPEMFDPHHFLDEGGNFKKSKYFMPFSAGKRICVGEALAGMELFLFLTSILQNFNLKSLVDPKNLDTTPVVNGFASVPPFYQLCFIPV
Chain of Cytochrome P450 2C19 (P33261 whole entry): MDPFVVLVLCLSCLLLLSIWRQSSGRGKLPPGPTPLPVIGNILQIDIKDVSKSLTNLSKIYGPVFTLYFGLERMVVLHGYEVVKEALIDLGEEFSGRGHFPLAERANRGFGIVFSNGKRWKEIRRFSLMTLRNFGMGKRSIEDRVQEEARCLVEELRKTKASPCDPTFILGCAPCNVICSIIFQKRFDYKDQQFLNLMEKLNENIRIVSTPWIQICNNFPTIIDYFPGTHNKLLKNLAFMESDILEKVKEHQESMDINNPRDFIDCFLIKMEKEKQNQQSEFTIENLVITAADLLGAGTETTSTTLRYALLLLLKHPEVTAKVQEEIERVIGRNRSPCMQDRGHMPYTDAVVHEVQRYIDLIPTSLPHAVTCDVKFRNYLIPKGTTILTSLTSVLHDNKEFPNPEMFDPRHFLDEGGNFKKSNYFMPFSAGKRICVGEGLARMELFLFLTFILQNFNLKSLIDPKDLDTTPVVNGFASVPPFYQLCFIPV
Chain of C-C chemokine receptor type 5 (P51681 whole entry): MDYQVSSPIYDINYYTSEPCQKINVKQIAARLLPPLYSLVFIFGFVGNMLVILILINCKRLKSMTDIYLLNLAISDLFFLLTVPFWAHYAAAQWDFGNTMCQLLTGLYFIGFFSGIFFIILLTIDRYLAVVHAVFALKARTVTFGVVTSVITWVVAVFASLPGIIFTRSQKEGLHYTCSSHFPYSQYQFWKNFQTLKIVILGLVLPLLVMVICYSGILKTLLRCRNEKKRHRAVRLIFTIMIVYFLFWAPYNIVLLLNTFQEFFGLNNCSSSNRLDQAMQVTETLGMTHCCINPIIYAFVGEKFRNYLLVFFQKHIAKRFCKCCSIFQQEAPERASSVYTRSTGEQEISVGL
Chain of Cytochrome P450 2D6 (P10635 whole entry): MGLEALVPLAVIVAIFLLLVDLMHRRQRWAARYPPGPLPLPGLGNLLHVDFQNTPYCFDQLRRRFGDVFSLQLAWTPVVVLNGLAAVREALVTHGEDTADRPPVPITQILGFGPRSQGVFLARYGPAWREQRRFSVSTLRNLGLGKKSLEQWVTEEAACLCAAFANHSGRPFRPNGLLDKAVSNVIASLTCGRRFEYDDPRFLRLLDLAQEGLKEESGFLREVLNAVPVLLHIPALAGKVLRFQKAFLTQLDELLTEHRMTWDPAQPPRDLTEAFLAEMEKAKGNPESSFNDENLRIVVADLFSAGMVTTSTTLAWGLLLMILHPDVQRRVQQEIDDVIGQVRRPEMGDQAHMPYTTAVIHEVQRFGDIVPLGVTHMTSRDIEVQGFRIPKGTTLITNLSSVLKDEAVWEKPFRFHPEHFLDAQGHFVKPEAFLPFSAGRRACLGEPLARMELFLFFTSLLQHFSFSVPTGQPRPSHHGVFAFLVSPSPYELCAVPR

For `CC(=O)N1CCc2c(nc(C)n2[C@@H]2C[C@H]3CC[C@@H](C2)N3CC[C@H](NC(=O)C2CCC(F)(F)CC2)c2ccsc2)C1`, the IC50 [1] was > 25000 nM, the CI [2] was 0.33 and the CI [3] was 0.47. The IC50 [4] was > 25000 nM, the CI [5] was 0.46 and the IC50 [6] was > 25000 nM. The selectivity ratio [7] was > 69200, the AUC [8] was 270 ng·h/mL and the CI [9] was 0.5. For the same compound, the EC50 [10] was 0.29 nM, the EC50 [11] was 19 nM and the EC50 [12] was > 1000 nM. For the same compound, the CC50 at 48 h [13] was > 200000 nM, the EC50 [14] was 23.3 nM and the CI [15] was 0.6. For the same compound, the CI [16] was 0.44, the Tmax [17] was 2.67 h and the CC50 at 48 h [18] was > 200000 nM. For the same compound, the selectivity ratio [19] was > 26200, the CI [20] was 0.41 and the CC50 at 48 h [21] was > 200000 nM. It also gave an AUC [22] of 3.44 ng·h/mL, an AUC [23] of 270 ng·h/mL and a selectivity ratio [24] of 4400. For the same compound, the IC50 [25] was > 25000 nM, the half-life [26] was 6.44 h and the EC50 [27] was 2.71 nM. For the same compound, the F [28] was 11.9%, the CI [29] was 0.95 and the EC50 [30] was 2.89 nM. For the same compound, the AUC(0-t) at 24 h [31] was 270 ng·h/mL, the IC50 [32] was 15.9 nM and the half-life [33] was 3.34 h. For the same compound, the IC50 [34] was > 25000 nM, the Cmax [35] was 66.4 ng/mL and the CI [36] was 0.85. For the same compound, the CC50 at 48 h [37] was 103000 nM, the EC50 [38] was 10 nM and the MRT [39] was 9.16 h. The CI [40] was 0.75, the selectivity ratio [41] was > 30300 and the CI [42] was 0.69. For the same compound, the EC50 [43] was 7.64 nM, the EC50 [44] was 0.66 nM and the selectivity ratio [45] was > 69000. The selectivity ratio [46] was > 20000, the EC50 [47] was 5.26 nM and the MRT [48] was 9.16 h. For the same compound, the IC50 [49] was > 25000 nM, the selectivity ratio [50] was 5390 and the selectivity ratio [51] was 19500.
